Assay results taken from PMC12208134, “Structure-activity relationships of 1,5-dihydro-2H-benzo[b][1,4]diazepine-2,4(3H)-diones as inhibitors of Trypanosoma cruzi” (RSC medicinal chemistry, 2025).
Converted amounts (≈) assume the structure as drawn. “And” between values parts separate entries of the source, which are not always exact repeats. Identical values can stand only once. Like-named read-outs stand apart in the source and are kept apart here.

How the values were obtained:
[1] = Human liver microsomal intrinsic clearance; assay type: in vitro ADME
[2] = Kinetic aqueous solubility by CAD; assay type: physicochemical
[3] = ChromLogD pH7.4 (chromatographic hydrophobicity index), PFI, LLE; settings: for PFI: ChromLogDpH7.4 + no. aromatic rings
Excerpt: [23] Alongside PFI, LLE (ligand lipophilic efficiency, T. cruzi pIC50 - ChromLogDpH7.4) was also monitored to identify changes where the impact on potency was not driven by increasing lipophilicity.

[4] = test system: intracellular T. cruzi amastigotes; experiment: T. cruzi intracellular potency assay (high content imaging); assay type: cell-based, Trypanosoma cruzi; design: key to Max Effect (T. cruzi): % inhibition; 0% = DMSO control, 100% = 16 μM nifurtimox control; settings: for Emax / EC50 / IC50: Trypanosoma cruzi; for Emax / EC50 / Hill slope (T. cruzi) / Max Effect (T. cruzi) / pEC50 (T. cruzi): individual replicate; for Emax: read-out: Max Effect (T. cruzi); for EC50: read-out: pEC50 (T. cruzi) (converted); for IC50: read-out: T. cruzi pIC50 (converted)
Protocol: (§1) T. cruzi intracellular potency and rate-of-kill assay (high content imaging) ^1
(§2) Silvio X10/7 T. cruzi trypomastigotes were incubated at 37°C 5% CO2 with 1.6×10^7 Vero cells overnight at MOI10 in MEM media supplemented with 10% foetal calf serum (FCS). Extracellular parasites were removed by aspirating cell culture supernatant, and washing Vero monolayer with 10 ml serum-free MEM three times. Vero cells were then harvested by trypsinization and dispensed at 2×10^3 per well (50 μl in MEM/ 1% FCS) into 384 well plates pre-stamped with compounds in DMSO using automated washer/ dispenser EL406 and liquid handling software (Biotek). Plates were then incubated at 37°C in 5% CO2 for 96 h. For rate-of-kill determination, plates were incubated for 24h, 48h, 72h and 96h.
(§3) Plates were subsequently fixed with 4% formaldehyde for 20 min, permeabilised and stained with 5 μgml^-1 Hoechst 33342/ 0.1% Triton/ PBS Thimerosal 20 min. Automated imaging was performed by an Operetta high content imaging system using 20x objective (PerkinElmer). Images were analysed with an algorithm generated in Columbus (PerkinElmer) to segment Vero cell nuclei, Vero cell cytoplasm and parasite nuclei/ kinetoplasts, reporting number of amastigotes per Vero cell, percent infected Vero cells and total number of Vero cells. Compound potencies against T. cruzi parasites were calculated in IDBS Activitybase using percent infected Vero cells and Vero toxicity curves generated using number of host cells. All data was normalised to percent inhibition based on the raw data values for the 100% effect control (16 μM nifurtimox) and the 0% effect control (DMSO) on each plate at each time point. Curve fitting was carried out using a four-parameter equation as previously described. ^2 For rate-of-kill experiments the percent infected cells at each compound concentration was plotted against time.

[5] = Mouse liver microsomal intrinsic clearance; assay type: in vitro ADME
host Vero cell = experiment: Vero host cell toxicity in the intracellular T. cruzi assay; assay type: cell-based; design: key to Max Effect (Vero): % inhibition; 0% = DMSO control, 100% = 16 μM nifurtimox control; settings: for EC50 / IC50: Chlorocebus sabaeus; for EC50: Vero; for EC50 / Max Effect (Vero) / pEC50 (Vero) / Hill Slope (Vero): individual replicate; for IC50: read-out: Vero pIC50 (converted)
Protocol: as §1, §2, §3

[6] = intracellular amastigotes in Vero cells, 96 h, mean of N ≥ 3
[7] = kinetic from dmso stock, kinetic, CAD, read-out: Aqueous solubility

chromatographic logD ([3]; pH 7.4)	HLM CLi ([1]; human liver microsomes) [mL/min/g]	solubility [2, 7] [µM]	MLM CLi ([5]; mouse liver microsomes) [mL/min/g]	Molecule	HLM CLi ([1]; human, microsomes) [mL/min/g]	solubility ([2]; kinetic from dmso stock) [µM]	PFI [3]	Emax [4] [%]	EC50 [4] [µM]	IC50 [4, 6] [µM]	Hill slope (T. cruzi) [4]	Max Effect (T. cruzi) [4]	pEC50 (T. cruzi) [4]	MLM CLi ([5]; mouse, microsomes) [mL/min/g]	EC50 (host Vero cell) [µM]	IC50 (host Vero cell; host Vero cell) [µM]	Max Effect (Vero) (host Vero cell)	pEC50 (Vero) (host Vero cell)	also measured
–	–	–	–	CC(C)N(C(=O)CN1C(=O)C(N)C(=O)N(c2ccccc2)c2ccccc21)c1ccccc1 (single isomer, unassigned) [14-Ent 2, 2-(3-amino-2,4-dioxo-5-phenyl-2,3,4,5-tetrahydro-1H-benzo[b][1,4]diazepin-1-yl)-N-isopropyl-N-phenylacetamide]	–	–	–	–	–	–	85.9 and 4.0	82	6.7 and 6.6	–	–	–	5.45 and 20	< 4.3	–
3.5	<0.4	380 (≈ 155 µg/mL)	0.7	Cc1ccc(NC(=O)NC2C(=O)Nc3ccccc3N(C3CCOCC3)C2=O)cc1 (centres unmarked) [Compound 8, 1-(2,4-dioxo-1-(tetrahydro-2H-pyran-4-yl)-2,3,4,5-tetrahydro-1H-benzo[b][1,4]diazepin-3-yl)-3-(p-tolyl)urea]	–	–	5.5	73	10	12.6	2.6 and 1.3 and 1.9	78 and 81	4.9 and 4.8	–	> 50.1	> 50.1	17 and 36 and -0.637 and 18	–	–
5.7	<0.4	23 (≈ 8.89 µg/mL)	3.5	Cc1ccc(NC(=O)NC2CN(c3ccccc3)c3ccccc3NC2=O)cc1 (centres unmarked) [Compound 10, 1-(4-oxo-1-phenyl-2,3,4,5-tetrahydro-1H-benzo[b][1,4]diazepin-3-yl)-3-(p-tolyl)urea]	–	–	8.7	86	–	7.94	3.5 and 12.0 and 3.2 and 0.8	83 and 85	5.0 and 4.9 and 5.3	–	–	12.6	96 and 91 and 95 and 63	4.7 and 5.2 and 4.6 and 5.3	Hill Slope (Vero) (host Vero cell): 3.6 and 42.2 and 4.8 and 14.3
5.4	<0.4	< 1	4.0	Cc1ccc(NC(=O)NC2CNc3ccccc3N(c3ccccc3)C2=O)cc1 (centres unmarked) [Compound 11, 1-(2-oxo-1-phenyl-2,3,4,5-tetrahydro-1H-benzo[b][1,4]diazepin-3-yl)-3-(p-tolyl)urea]	–	–	8.4	67	25.1	25.1	1.3 and 2.0 and 1.7 and 2.2	77 and 75 and 73	4.7	–	> 50.1	> 50.1	20 and 21 and 9 and 10	–	–
6.1	<0.4	27 (≈ 10.5 µg/mL)	4.9	Cc1ccc(NC(=O)NC2COc3ccccc3N(c3ccccc3)C2=O)cc1 (centres unmarked) [Compound 13, 1-(4-oxo-5-phenyl-2,3,4,5-tetrahydrobenzo[b][1,4]oxazepin-3-yl)-3-(p-tolyl)urea]	–	–	9.1	–	–	25.1	2.6 and 8.4 and 3.4 and 2.9 and 1.5	84 and 89 and 94 and 80 and 46	4.6 and 4.8 and 4.7 and 4.5 and < 4.3	–	39.8	50.1	80 and 67 and 70 and 76 and 15 and 5.57	4.3 and < 4.3	Hill Slope (Vero) (host Vero cell): 12.0 and 13.9 and 15.1 and 6.4
–	–	–	–	CC(C)N(C(=O)CN1C(=O)C(N)C(=O)N(c2ccccc2)c2ccccc21)c1ccccc1 (single isomer, unassigned) [14-Ent 1, 2-(3-amino-2,4-dioxo-5-phenyl-2,3,4,5-tetrahydro-1H-benzo[b][1,4]diazepin-1-yl)-N-isopropyl-N-phenylacetamide]	–	–	–	94	0.316	–	3.1 and 5.7	88	6.4	–	> 50.1	–	27 and 35	< 4.3	–
4.2	<0.4	25 (≈ 9.16 µg/mL)	1.8	Cc1ccc(NC(=O)NC2C(=O)Nc3ccccc3N(C(C)C)C2=O)cc1 (centres unmarked) [Compound 7, 1-(1-isopropyl-2,4-dioxo-2,3,4,5-tetrahydro-1H-benzo[b][1,4]diazepin-3-yl)-3-(p-tolyl)urea]	–	–	6.2	–	20	12.6	2.0 and 0.8 and 3.3 and 2.1	86 and 58 and 83 and 89	4.9 and 5.0	–	> 50.1	> 50.1	25 and 30 and 20 and -11	–	–

Molecule	chromatographic logD ([3]; pH 7.4)	HLM CLi ([1]; human liver microsomes) [mL/min/g]	solubility [2, 7] [µM]	MLM CLi ([5]; mouse liver microsomes) [mL/min/g]	HLM CLi ([1]; human, microsomes) [mL/min/g]	solubility ([2]; kinetic from dmso stock) [µM]	PFI [3]	Emax [4] [%]	EC50 [4] [µM]	IC50 [4, 6] [µM]	Hill slope (T. cruzi) [4]	Max Effect (T. cruzi) [4]	pEC50 (T. cruzi) [4]	MLM CLi ([5]; mouse, microsomes) [mL/min/g]	EC50 (host Vero cell) [µM]	IC50 (host Vero cell; host Vero cell) [µM]	Max Effect (Vero) (host Vero cell)	pEC50 (Vero) (host Vero cell)	also measured
COc1ccccc1N1C(=O)C(NC(=O)Nc2ccc(C)cc2)C(=O)Nc2ccccc21 (centres unmarked) [Compound 6, 1-(1-(2-methoxyphenyl)-2,4-dioxo-2,3,4,5-tetrahydro-1H-benzo[b][1,4]diazepin-3-yl)-3-(p-tolyl)urea]	4.7	–	–	–	<0.4	129 (≈ 55.5 µg/mL)	7.7	79	31.6	31.6	2.9 and 3.1 and 3.8 and 11.3	81 and 90 and 77	4.6 and 4.3	2.1	> 50.1	> 50.1	38 and 21 and 11 and 12	–	–
COc1ccc(CN2C(=O)C(N)C(=O)N(c3ccccc3)c3c(F)cccc32)cc1 (centres unmarked) [Compound 21, 3-amino-6-fluoro-1-(4-methoxybenzyl)-5-phenyl-1,5-dihydro-2H-benzo[b][1,4]diazepine-2,4(3H)-dione]	4.3	–	–	–	<0.4	> 217	7.3	81	–	1.26	13.4 and 21.5 and 12.3 and 1.4 and 2.3 and 17.2	88 and 90 and 85	5.8 and 6.3 and 5.7	9.0	> 50.1	> 50.1	-0.364 and 17 and 0.947 and 18 and 21 and 12	–	–
COc1ccc(CN2C(=O)CC(=O)N(c3ccc(OC)cc3)c3ccccc32)cc1 [Compound 23, 1-(4-methoxybenzyl)-5-(4-methoxyphenyl)-1,5-dihydro-2H-benzo[b][1,4]diazepine-2,4(3H)-dione]	5.1	–	–	–	>37	175 (≈ 70.4 µg/mL)	8.1	–	> 50.1	> 50.1	–	39 and 11 and 27 and 29	–	80	> 50.1	> 50.1	2.11 and 2.25 and 31 and 32	–	–
3-amino-6-fluoro-1-(4-methoxybenzyl)-5-(4-methoxyphenyl)-1,5-dihydro-2H-benzo[b][1,4]diazepine-2,4(3H)-dione [Compound 22]	–	<0.4	–	2.2	–	–	7.2	–	–	–	11.8 and 10.3 and 3.4 and 21.3	77 and 98 and 83 and 82	7.2	–	–	–	3.52 and 24 and 2 and 12	< 4.3	solubility ([2]; kinetic, CAD, read-out: Aqueous solubility): 168 µM; Chrom LogDpH7.4 ([3]; pH 7.4): 4.2; T. cruzi pIC50 [4, 6]: 7.2 ± 0.0; Vero pIC50 (host Vero cell; host Vero cell): <4.3
O=C(Nc1ccc(F)cc1)NC1C(=O)Nc2ccccc2N(c2ccccc2)C1=O (centres unmarked) [Compound 3, 1-(2,4-dioxo-1-phenyl-2,3,4,5-tetrahydro-1H-benzo[b][1,4]diazepin-3-yl)-3-(4-fluorophenyl)urea]	4.4	–	–	–	<0.4	26 (≈ 10.5 µg/mL)	7.4	90	12.6	10	2.0 and 0.8 and 2.1 and 1.3	92 and 95 and 83	5.1 and 4.8	0.6	> 50.1	> 50.1	-12 and 14 and 22 and 36	–	–
